Measurements taken from the CheMixHub viscosity set.

Assay: xn = mol fraction of the nth substance listed

Cc1cccc(Cl)c1 + CCOC(=O)c1ccccc1
viscosity [mPa·s], 101 kPa
Conditions | 303.15 K | 313.15 K
x2 = 0.0789 | 0.775 | 0.672
x2 = 0.1831 | 0.822 | 0.711
x2 = 0.2348 | 0.851 | 0.734
x2 = 0.3353 | 0.913 | 0.782
x2 = 0.4121 | 0.973 | 0.827
x2 = 0.4871 | 1.043 | 0.881
x2 = 0.5629 | 1.122 | 0.938
x2 = 0.6364 | 1.212 | 1.006
x2 = 0.711 | 1.312 | 1.084
x2 = 0.7831 | 1.419 | 1.166
x2 = 0.8563 | 1.54 | 1.257
x2 = 0.9045 | 1.625 | 1.321
x2 = 0.9524 | 1.714 | 1.388

CCOCCO + O=S1(=O)CCCC1
303.15 K
Conditions | viscosity [mPa·s]
101 kPa, x2 = 0.0459 | 1.145
101 kPa, x2 = 0.1045 | 0.887
101 kPa, x2 = 0.1957 | 0.692
101 kPa, x2 = 0.2957 | 0.877
101 kPa, x2 = 0.3504 | 1.721
101 kPa, x2 = 0.3966 | 2.176
101 kPa, x2 = 0.4471 | 2.684
101 kPa, x2 = 0.4987 | 3.644
101 kPa, x2 = 0.5514 | 4.636
101 kPa, x2 = 0.5999 | 5.66
101 kPa, x2 = 0.6984 | 6.898
101 kPa, x2 = 0.8002 | 8.224
101 kPa, x2 = 0.8997 | 9.136
101.33 kPa, x1 = 0.042 | 8.909
101.33 kPa, x1 = 0.0712 | 7.997
101.33 kPa, x1 = 0.109 | 7.117
101.33 kPa, x1 = 0.1849 | 5.742
101.33 kPa, x1 = 0.2899 | 4.443
101.33 kPa, x1 = 0.3942 | 3.612
101.33 kPa, x1 = 0.5561 | 2.759
101.33 kPa, x1 = 0.6236 | 2.472
101.33 kPa, x1 = 0.6586 | 2.349
101.33 kPa, x1 = 0.7385 | 2.108
101.33 kPa, x1 = 0.7622 | 2.027
101.33 kPa, x1 = 0.8406 | 1.843
101.33 kPa, x1 = 0.9162 | 1.688
101.33 kPa, x1 = 0.9539 | 1.619

CCOCCO + ClC(Cl)(Cl)Cl
viscosity [mPa·s], 100 kPa
Conditions | x2 = 0.0977 | x2 = 0.1959 | x2 = 0.2946 | x2 = 0.3938 | x2 = 0.4935 | x2 = 0.5937 | x2 = 0.6945 | x2 = 0.7958 | x2 = 0.8976
298.15 K | 1.784 | 1.657 | 1.539 | 1.428 | 1.325 | 1.229 | 1.14 | 1.056 | 0.9785
303.15 K | 1.572 | 1.47 | 1.373 | 1.283 | 1.197 | 1.118 | 1.043 | 0.9725 | 0.9067
308.15 K | 1.391 | 1.308 | 1.23 | 1.155 | 1.085 | 1.019 | 0.9566 | 0.8976 | 0.8421
313.15 K | 1.236 | 1.168 | 1.105 | 1.044 | 0.9864 | 0.9318 | 0.8798 | 0.8306 | 0.7838

CNC(C)=O + c1ccccc1
308.15 K, 101.33 kPa
Conditions | viscosity [mPa·s]
x1 = 0.0294 | 0.4955
x1 = 0.226 | 0.8005
x1 = 0.3331 | 1.021
x1 = 0.437 | 1.255
x1 = 0.5349 | 1.51
x1 = 0.6329 | 1.78
x1 = 0.7301 | 2.099
x1 = 0.823 | 2.452
x1 = 0.9747 | 3.132

CNC(C)=O + Cc1cc(C)cc(C)c1
308.15 K, 101.33 kPa
Conditions | viscosity [mPa·s]
x1 = 0.0458 | 0.6101
x1 = 0.3137 | 1.08
x1 = 0.4362 | 1.342
x1 = 0.5467 | 1.621
x1 = 0.646 | 1.898
x1 = 0.7315 | 2.174
x1 = 0.8095 | 2.455
x1 = 0.8779 | 2.719
x2 = 0.0126 | 3.191

CC(CC(C)(C)C)CP(=O)(O)CC(C)CC(C)(C)C (centres undefined) + Cc1ccccc1
298.15 K, 101 kPa
Conditions | viscosity [mPa·s]
x1 = 0.0069 | 0.589
x1 = 0.0129 | 0.633
x1 = 0.0143 | 0.65
x2 = 0.1117 | 88.23
x2 = 0.2037 | 66.68
x2 = 0.3198 | 43.9
x2 = 0.4972 | 20.43
x2 = 0.6533 | 9.197
x2 = 0.7579 | 4.844
x2 = 0.7674 | 4.562
x2 = 0.8571 | 2.218
x2 = 0.8649 | 2.075
x2 = 0.9241 | 1.252
x2 = 0.9269 | 1.219
x2 = 0.9692 | 0.778

CCOCCO + CC(C)O
viscosity [mPa·s], 101.33 kPa
Conditions | x1 = 0.1024 | x1 = 0.2002 | x1 = 0.301 | x1 = 0.4035 | x1 = 0.5037 | x1 = 0.6022 | x1 = 0.6984 | x1 = 0.8009 | x1 = 0.9017
298.15 K | 1.858 | 1.764 | 1.703 | 1.692 | 1.682 | 1.693 | 1.711 | 1.756 | 1.773
303.15 K | 1.614 | 1.54 | 1.495 | 1.49 | 1.491 | 1.504 | 1.518 | 1.566 | 1.575
308.15 K | 1.404 | 1.356 | 1.324 | 1.325 | 1.329 | 1.34 | 1.36 | 1.398 | 1.413
313.15 K | 1.233 | 1.19 | 1.17 | 1.176 | 1.19 | 1.203 | 1.217 | 1.259 | 1.267

CCOCCO + CCCCCC
viscosity [mPa·s], 101.33 kPa
Conditions | x1 = 0.0967 | x1 = 0.1963 | x1 = 0.2958 | x1 = 0.394 | x1 = 0.4948 | x1 = 0.5958 | x1 = 0.6979 | x1 = 0.7955 | x1 = 0.8993
298.15 K | 0.335 | 0.376 | 0.433 | 0.504 | 0.595 | 0.716 | 0.875 | 1.087 | 1.452
303.15 K | 0.318 | 0.357 | 0.406 | 0.472 | 0.554 | 0.663 | 0.803 | 0.987 | 1.315
308.15 K | 0.303 | 0.339 | 0.385 | 0.443 | 0.517 | 0.615 | 0.741 | 0.907 | 1.199
313.15 K | 0.29 | 0.322 | 0.361 | 0.415 | 0.484 | 0.573 | 0.686 | 0.829 | 1.083
